Reference: patent US9427456B2, “Peptide therapy for increasing platelet levels” (Biokine Therapeutics Ltd., priority 2009, dated 2016)
“Also recorded” adds a separate entry of the source.

Experiments:
[1] = test system: hematopoietic precursor cells in the bone marrow; assay: Hematopoietic progenitor cells (HPCs) colony-forming cell assay, bone marrow of treated mice; format: in vivo, C57BL/6 mice; settings: bone marrow at day 5; colonies scored after seven days of culture; same regimens as Table 2
Description: (§1) 4F-benzoyl-TN14003 and Thrombopoietin were reconstituted in PBS at various concentrations. Mice were injected subcutaneously in a total volume of 200 μl. 4F-benzoyl-TN14003 (100 ug/mouse, 5 mg/Kg) was injected for 5 days, once a day and at day 5 blood was collected and tested for platelets counts and hematopoietic colonies were tested in the bone marrow. Thrombopoietin was injected 3 times once a day, at (0.5 ug/mouse), and blood was collected and tested for platelets counts and hematopoietic colonies were tested in the bone marrow at day 5. In another group 4F-benzoyl-TN14003 (100 ug/mouse) was injected for 5 days, once a day and at days 3, 4 and 5 mice were further injected with Thrombopoietin (namely 3 times once a day, at 0.5 ug/mouse). Blood was collected and tested for platelets counts and hematopoietic colonies were tested in the bone marrow at day 5. Control mice were injected with PBS at the appropriate volume and blood was collected and tested for platelets counts and hematopoietic colonies in the bone marrow at day 5.
In order to evaluate the number of progenitor cells in the Bone marrow, a colony-forming cell assay was used for the production of hematopoietic colonies following treatments. […] Seven days later, typical colonies were visually scored by morphologic criteria using a light microscope.

blood platelets [2] = assay: Chemotherapy (5FU)-induced thrombocytopenia model in mice; format: in vivo; settings: for Levels of platelets in blood before and after 5FU: 5FU 150 mg/kg i.p. day 0, peptide 5 mg/Kg s.c. daily 5 days before and from day 1 after 5FU, G-CSF 5 μg/mouse daily from day 1, TPO 0.5 μg/mouse 3 days before 5FU, FIG. 4-6
Description: In the chemotherapy experiments 5-fluorouracil (5FU) at 150 mg/kg was dissolved in saline and injected intraperitoneally (on day 0). The mice were treated with 4F-benzoyl-TN14003 (5 mg/Kg) for 5 days or with TPO (0.5 μg/mouse) for 3 days before treatment with 5FU. 4F-benzoyl-TN14003 treated mice were further treated daily with 4F-benzoyl-TN14003 (5 mg/Kg) one day after 5FU administration and the treatment was continued until the end of the experiment. Blood samples were collected 1 hr following 4F-benzoyl-TN14003 administration or control (PBS) injection]; total blood counts were tested by American Medical Laboratories, Israel. In some experiments, G-CSF was s.c. injected daily, one day after 5FU administration until the end of the experiment, at final concentration of 5 μg/mouse in total volume of 0.2 ml.
The platelet modulating effects were then examined in a chemotherapy-induced thrombocytopenia model in mice. In these experiments, 5-fluorouracil (“5FU”) at 150 mg/kg dissolved in saline was injected intraperitoneally to all mice (on day 0). Some of the mice were further treated with 4F-benzoyl-TN14003 (5 mg/Kg, once daily S.C. injections) for 5 days before treatment with 5FU, and Mice were further treated daily with 4F-benzoyl-TN14003 (5 mg/Kg) one day after 5FU and the treatment was continued until the end of the experiment. Blood samples were collected 1 hr following administration of 4F-benzoyl-TN14003 or control (PBS) injection. […] In FIG. 4, diamonds represent control (PBS treated) mice; open squares represent 4F-benzoyl-TN14003 treated mice.
Next, the effect of the peptide on mice treated with 5FU with or without G-CSF was examined. G-CSF administration (as daily S.C. injections, 5 μg/mouse) was initiated one day after 5FU treatment and continued until the end of the experiment. 5FU and 4F-benzoyl-TN14003 administration and blood sample collection were as specified above for FIG. 4. […] In FIG. 5, diamonds represent control (PBS treated) mice; open squares represent 4F-benzoyl-TN14003 treated mice; triangles represent G-CSF treated mice; and crosses represent mice treated with G-CSF and 4F-benzoyl-TN14003.
The activity of the peptide in the chemotherapy-induced thrombocytopenia model was then compared to that of TPO. In the TPO group, mice were treated with a single dose of TPO (0.5 μg/mouse) for 3 days before treatment with 5FU. 5FU and 4F-benzoyl-TN14003 administration and blood sample collection were as specified above for FIG. 4. […] In FIG. 6, diamonds represent control (PBS treated) mice; open squares represent 4F-benzoyl-TN14003 treated mice; and triangles represent TPO treated mice.

blood platelets [3] = assay: Blood platelet counts in healthy mice after s.c. injection; format: in vivo, C57BL/6 mice; settings: for Platelets (×10^3): blood at day 5, s.c., 4F-benzoyl-TN14003 100 ug/mouse (5 mg/Kg) once a day for 5 days, TPO 0.5 ug/mouse 3 times once a day (days 3-5 in combination); for % increase (platelet counts): versus PBS control, day 5, same regimens as platelet counts
Description: Female C57BL/6 mice (7-8 weeks old) were purchased from Harlan Israel and maintained under specific pathogen-free conditions at the Hebrew University Animal Facility (Jerusalem, Israel).
as §1
In the experiments described in FIG. 2, mice were injected subcutaneously with 4F-benzoyl-TN14003 at a dose of 5 mg/kg, administered either as a once daily injection or divided into two doses administered b.i.d. Blood platelet levels were measured 1, 2 or 3 days later.
In FIG. 3, “Male control” and “Female control” indicate PBS-treated male and female mice, respectively; “Male+4FB-T140” and “Female+4FB-T140” indicate male or female mice treated with 4F-benzoyl-TN14003 (5 mg/kg)

blood platelets [4] = assay: Clinical study: single dose in Multiple Myeloma patients receiving Cyclophosphamide and G-CSF, blood platelet levels; format: in vivo, human
Description: A Phase […], non-Randomized, Open Label, Single Dose, Dose-Escalation, Safety Study of 4F-benzoyl-TN14003 was conducted in patients with Multiple Myeloma (MM) receiving G-CSF for inducing mobilization of progenitor stem cells from the Bone Marrow to the peripheral blood.
All eligible patients received, in an ambulatory setting, as part of their planned therapy: Cyclophosphamide—(the generic name for Cytoxan, Neosar), 4 gr/m^2 according to the accepted MM practice. G-CSF (neupogen) was initiated 5 days later and continued until the end of stem cell collection, administered SC at 5 μg/kg per day every day after 18:00. Monitoring the WBC and platelets was done after 7 and 10 days, and until stem cell collection. Stem cell collection was performed according to the protocol of WBC over 1,000 cells.
4F-benzoyl-TN14003 was injected after 10 days, as a single dose of 30, 100, 300 or 900 μg/Kg. The follow-up post injection included counting WBC and platelets levels at points of 30 min, 1 hr, 2 hr, 4 hr, 8 hr, 24 hr.
MM patients undergoing chemotherapy with Cyclophosphamide, received G-CSF according to a clinical protocol for inducing HPC mobilization for subsequent harvesting and transplantation. 10 days after Cyclophosphamide and G-CSF treatment, the patients received 4F-benzoyl-TN14003 injected at a dose of 0.9 mg/kg. […]

Row | Molecule | Colonies (HPC counts, colony forming cells in bone marrow) [1] | Levels of platelets in blood before and after 5FU (blood platelets [2]) | Platelet levels after 10 days of administration, compared with TPO and control (blood platelets [2]; 5FU model, FIG. 6) | Potency relative to TPO in enhancing platelet levels and reducing chemotherapy-induced thrombocytopenia (blood platelets [2]; thrombocytopenia induced by chemotherapy) | Blood platelet levels after a single injection (blood platelets [3]; 5 mg/kg s.c., once daily or divided b.i.d., measured 1, 2 or 3 days later, FIG. 2) | Blood platelet levels in male and female mice (blood platelets [3]; 5 mg/kg, measured 3 days post administration, FIG. 3) | Platelets (×10^3) (blood platelets [3]) | Effect on TPO activity in enhancing platelets levels (blood platelets [3]; combination with TPO, mice, FIG. 1) | Potency relative to TPO in stimulating production of platelets (blood platelets [3]; healthy C57B1 mice) | % increase (platelet counts) (blood platelets [3]) | Time after administration at which platelet increase could be detected (blood platelets [4]; 0.9 mg/kg single injection, MM patients) | Number of platelets in the blood after single injection (blood platelets [4]; 0.9 mg/kg, 10 days after Cyclophosphamide and G-CSF, still observed after 1, 2, 4 or 8 hours, FIG. 7)
1 | 4F-benzoyl-Arg-Arg-Nal-Cys-Tyr-Cit-Lys-DLys-Pro-Tyr-Arg-Cit-Cys-Arg-NH2 [4F-benzoyl-TN14003] | 148.2 | enhanced the levels of platelets in blood before and after treatment with 5FU; also recorded: elevated blood platelet levels before or after 5FU administration | higher in 4F-benzoyl-TN14003-treated mice than in TPO-treated mice or control mice | more potent than TPO | significant elevation in blood platelet levels | enhanced blood platelet levels | 1551 ×10^3 | potentiates the activity of TPO in enhancing platelets levels in vivo | as potent as TPO | 32% | 30 min | immediate increase in the number of platelets in the blood
2 | Thrombopoietin [TPO] | 150.2 | elevated blood platelet levels before or after 5FU administration |  |  |  |  | 1556 ×10^3 |  |  | 32% |  | 
3 | granulocyte-colony stimulating factor (protein, UniProt P09919 31-207, looked up, granulocyte-colony stimulating factor, s.c. injected daily at 5 μg/mouse) Granulocyte …: TPLGPASSLPQSFLLKCLEQVRKIQGDGAALQEKLVSECATYKLCHPEELVLLGHSLGIPWAPLSSCPSQALQLAGCLSQLHSGLFLYQGLLQALEGISPELGPTLDTLQLDVADFATTIWQQMEELGMAPALQPTQGAMPAFASAFQRRAGGVLVASHLQSFLEVSYRVLRHLAQP |  | no effect on blood platelet levels; also recorded: had no effect on platelet levels |  |  |  |  |  |  |  |  |  | 
